Test results: patent US11730717B1, “Melanin-inspired antimicrobial” (The Board of Regents for the Oklahoma Agricultural and …, priority 2020, dated 2023)
Values after ≈ are worked out from the molar mass of the structure shown.

Columns and labels:
MRSA [1] = assay: Kirby-Bauer disc diffusion assay; assay type: cell-based, Staphylococcus aureus
Method: The susceptibility of MRSA to EIPE-1 was determined by the Kirby-Bauer disc diffusion method. Using a cotton swab applicator, a lawn of the S. aureus clinical isolate was placed onto Mueller Hinton agar plates to cover the entire surface of the plate. Filter discs (size=6 mm) were added onto the bacterial lawn. EIPE-1, DBI, and DMSO (10 μL each) were then added onto the filter discs.
The efficacy of compound EIPE-1 was tested by the Kirby-Bauer disc assay. The Kirby-Bauer disc assay assesses the sensitivity of bacteria to antimicrobial agents. If the bacteria are sensitive to the antimicrobial being tested, then a zone of inhibition of bacterial growth is seen around the filter disc containing the antimicrobial. The Kirby-Bauer disc assay was used to test the antimicrobial efficacy of EIPE-1 against MRSA. EIPE-1 was reconstituted at 1 mg/mL in DMSO and serially diluted (10^−1 to 10^−5) after which 10 μL of each dilution (and DMSO as a solvent control) was added to a separate disc on an LB plate inoculated with a lawn of bacteria. The plates were incubated at 37° C. for 24 h, and the resulting radii zone sizes around each disc were then measured.

[2] = tested on: Cryptococcus neoformans serotype A strain H99; assay: Antifungal MIC assay; assay type: cell-based
Method: (§1) Cryptococcus neoformans serotype A strain H99 as well as Candida ablicans strain SC5314, were readily available in the lab. The stock of cells is stored at −80° C. to preserve the fungi and prevent contamination. The cells were grown and maintained in yeast extract-peptone-dextrose (YPD) media (Difco). Cryptococcus or Candida cells were incubated in YPD broth for 18 hrs at 30° C., in a shaking incubator. After the incubation period, they were washed three times in sterile phosphate-buffered saline (PBS) to remove all remaining residue of YPD. The cells were then quantified by using trypan blue dye exclusion in a hemocytometer.
(§2) C. neoformans were suspended in RPMI with MOPS, 0.165M, at a concentration of 0.5×10^3 cells/mL. RPMI MOPS media was added to a 96-well plate in a volume of 100 μL to every well, with the exception of column 1. An additional 80 μL of RPMI MOPS was added to column 4 for a total of 180 μL/per well. Amphotericin B or EIPE-1 was added to columns […] with a volume of 20 μL at a concentration of 1 mg/mL. Contents were mixed, then serially diluted 100 μL down the plate until column 11. The last 100 μL was discarded, leaving column 12 blank. C. neoformans was added at a volume of 100 μL per well from column 4 to column 12, so the final volume of the wells was 200 μL. Plates were incubated at 35° C. in a humid incubator for 48 hrs.

[3] = tested on: Candida albicans strain SC5314; assay: Antifungal MIC assay; assay type: cell-based; details: 35° C., 48 hrs, RPMI with MOPS
Method: as §1
as §2, with “C. albicans were suspended” for “C. neoformans were suspended”, “cells/mL. RPMI Mops media was” for “cells/mL. RPMI MOPS media was”, “μL/per well. EIPE-1 was” for “μL/per well. Amphotericin B or EIPE-1 was”, “blank. C. albicans was added” for “blank. C. neoformans was added”

MRSA [4] = assay: Recoverable CFU after exposure to DBI; assay type: cell-based, Staphylococcus aureus; details: MRSA after 4 h of growth with DBI; DMSO control average 1.78×10^8
Method: To determine CFUs of PA and MRSA after exposure to DMSO, DBI, EIPE-1, Gentamicin or Methicillin, 10-fold serial dilutions were prepared in 96-well micro plates using multichannel pipettes. For each dilution, 25 ptL of each sample was pipetted onto a plate containing agar medium and incubated for 18 h at 37° C. The number of colonies for each dilution were counted and used to back calculate the number of bacteria per mL (CFU/mL) in each original bacterial culture.
After 4 h of growth, the resulting cultures were plated onto Mannitol Salts Agar (MSA). Decreased bacterial growth and decreased fermentation of the Mannitol (retention of the reddish hue of the MSA plate) could be seen in the MRSA culture exposed to DBI (FIG. 1A) which was confirmed with decreased recoverable CFUs (FIGS. 1B and 1C).

HeLa cells = assay: Cytotoxicity, LDH leakage assay; assay type: cell-based; details: 24-hour exposure, 250 μg/mL (610 μM)
Method: HeLa cells were cultured in 96-well plates at 37° C. and 5% CO2 in Roswell Park Memorial Institute (RMPI) 1640 medium with 5% Fetal Bovine Serum (FBS). Once HeLa cells reached 95% confluency, the media was replaced with media containing various concentrations of EIPE-1, DBI or DMSO for 24 hours. Cell cytotoxicity was measured using the lactate dehydrogenase (LDH) leakage assay. Results were compared to maximum values of lysed cells in control wells and were graphed as percent relative cytotoxicity using Prism 5.0.
Host cell cytotoxicity against HeLa cells was examined for both DBI and EIPE-1 (FIG. 2B). LDH release was examined after 24-hour exposure to varying concentrations of DBI, DMSO and EIPE-1. […] Thus, EIPE-1 is relatively safe to use with respect to eukaryotic cells.

[5] = tested on: methicillin resistant Staphylococcus aureus (MRSA) clinical isolate; assay: MIC by broth microdilution; assay type: cell-based; details: clinical isolate of MRSA from an adult CF patient; broth culture, 18 h at 37° C.
Method: The methicillin resistant Staphylococcus aureus (MRSA) and Pseudomonas aeruginosa (PA) strains used in this study are clinical isolates obtained from an adult CF patient at the Cystic Fibrosis Clinic at the OU Children's Hospital (Oklahoma City, Okla.). Escherichia coli (E. coli) and Enterococcus faecalis (E. faecalis) were obtained from American Type Culture Collection (ATCC). The strains were grown overnight with shaking at 37° C. (220 RPM) in 15 mL of Luria-Bertani (LB) broth. The overnight culture was sub-cultured the next day before use for the MIC experiments. All sub-cultures consisted of 1 mL of the overnight culture, mixed with 10 mL of Mueller Hinton broth. The working stock of the EIPE-1 and DBI was prepared by dissolving 1 mg of each in 1 mL of DMSO.
The minimum inhibitory concentrations (MICs) were determined by the broth microdilution method, following the guidelines of the Clinical and Laboratory Standards Institute (CLSI). Two-fold serial dilutions of EIPE-1, DBI, and Arm (starting with 1 mg/mL) were prepared in a 100 μL volume in 96-well microtiter plates. The dilution series included DMSO as a negative control. The bacterial culture […] was normalized to an OD600 of 0.2 and was then added to each well. Plates were incubated with shaking at 220 RPM at 37° C., and the MIC was determined based on the lowest concentration at which no visible growth of the bacterial isolate was observed.
In order to determine the MIC of EIPE-1 on MRSA, a culture of MRSA was grown overnight in Mueller Hinton broth (MHB) at 37° C., sub-cultured by a 1/100 dilution into MHB and dispensed into a 96 well culture block (900 μL of diluted culture in each well). To each well either DMSO or a serial dilution of EIPE-1 was added, then the culture was grown for 18 h at 37° C. The next day each well was tested for either growth or inhibition of growth by measuring of the OD^600 of the resulting culture. […] For comparison, the MIC of EIPE-1 was also determined against E. faecalis (8 μg/mL, 9 μM), confirming activity against Gram-positive bacteria.

MRSA [6] = assay: Live/Dead staining and fluorescent microscopy; assay type: cell-based, Staphylococcus aureus; details: 16 μg/mL, 17 μM, 30 minutes; Syto 9 and propidium iodide
Method: MRSA was grown overnight in 10 mL of LB broth, sub-cultured (5 mL of overnight culture added to 20 mL LB) and grown for 3 h. Bacterial culture (150 μL) were removed and transferred to a 1.5 mL centrifuge tube, which was treated with DMSO, EIPE-1 (0.01 mg/mL) or DBI (0.01 mg/mL) for 30 minutes. Equal amounts of the two dyes (SYTO 9 dye, 3.34 mM in DMSO), and propidium iodide (20 mM in DMSO) were mixed. Then 0.5 μL of the dye mixture was added to each tube of treated MRSA cultures. Wet mounts were prepared on glass slides for imaging live and dead MRSA, and Differential Interference Contrast (DIC) images were obtained using a Leica DMI600B fluorescent microscope. To determine the percentage of bacteria alive and dead, the total bacteria in each condition were counted in 20 fields of view and graphed using Prism 5.0.
To address MRSA viability in response to EIPE-1 treatment, a Live/Dead staining and microscopy was utilized. MRSA was treated with either DBI or EIPE-1 (16 μg/mL, 17 μM each) for 30 minutes (DMSO was used as a negative solvent control) and then stained with the dyes, Syto™ 9 and propidium iodide.

In the case of `CN(C)CCCOc1ccc(I)cc1` [arms], the “antimicrobial activity independent of the DBI core” value (MRSA [1]) is reported as “did not exhibit any antimicrobial activity”.

`C[C@@H]1[C@H](O)[C@@H](C)/C=C/C=C/C=C/C=C/C=C/C=C/C=C/[C@H](O[C@@H]2O[C@H](C)[C@@H](O)[C@H](N)[C@@H]2O)C[C@@H]2O[C@](O)(C[C@@H](O)C[C@@H](O)[C@H](O)CC[C@@H](O)C[C@@H](O)CC(=O)O[C@H]1C)C[C@H](O)[C@H]2C(=O)O` [Amphotericin B, reference compound] was tested, and the “Minimum inhibitory concentration (MIC) for the isolate of C. neoformans” value ([2]; 35° C., 48 hrs, RPMI with MOPS) was 0.6825 ± 0.2925 µg·mL, the “minimum inhibitory concentration average, C. neoformans” value ([2]; across four experiments) was 0.6 µg/mL (≈ 0.649 µM) and the “Minimum inhibitory concentration (MIC) for the isolate of C. albicans” value [3] was 0.5606 ± 0.1219 µg/mL.

In the case of `COC(=O)c1cc2c(Br)c(OC)c(OC)c(Br)c2n1C` [DBI, methyl 4,7-dibromo-5,6-dimethoxy-1-methyl-1H-indole-2-carboxylate], the “recoverable CFUs (average)” value (MRSA [4]) is reported as 1.19×10^7 CFU/mL, the “cytotoxicity (LDH release)” value (HeLa cells) is reported as 30% and the “minimum inhibitory concentration (MIC)” value [5] is reported as “could not be determined”. The “Live/Dead staining (green = intact membrane, red = damaged membrane)” value (MRSA [6]) was “mostly stained green”.
